Laboratory results: patent US20110263539A1, “SHIP 1 MODULATOR COMPOUNDS” (THE UNIVERSITY OF BRITISH COLUMBIA, priority 2006, published 2011)

Legend:
SHIP enzyme = test: In vitro SHIP enzyme assay (Assay 1); assay type: biochemical; conditions: 100 μM inositol-1,3,4,5-tetrakisphosphate, Malachite Green; note: key: a ‘+’ indicates a positive result for desired activity; a ‘−’ indicates a negative result for desired activity
Method: Assay 1) In vitro testing in a SHIP enzyme assay. Test compounds were dissolved in a suitable solvent (e.g. EtOH, DMSO and others) and diluted into aqueous buffer (20 mM Tris HCl, pH 7.5 and 10 mM MgCl2). SHIP enzyme assays were performed in 96-well microtitre plates with 10 ng of enzyme/well in a total volume of 25 μL of 20 mM Tris HCl, pH 7.5 and 10 mM MgCl2. SHIP enzyme was incubated with test extracts (provided in solvent) or vehicle for 15 min at 23° C. before the addition of 100 μM inositol-1,3,4,5-tetrakisphosphate (Echelon Biosciences Inc, Salt Lake City, Utah). After 20 min at 37° C. and the amount of inorganic phosphate released assessed by the addition of Malachite Green reagent and absorbance measurement at 650 nm.
For in vitro testing in the SHIP enzyme assay, AQX-016A and Compound 100 were dissolved in EtOH and diluted into aqueous buffer (20 mM Tris HCl, pH 7.5 and 10 mM MgCl2). The actual concentration of drug in solution was determined by optical density measurement at 280 nm (λmax for both compounds) after high speed centrifugation at 14 000×g for 30 min to remove precipitated drug. For testing on cells, compounds were formulated in the carrier cyclodextrin (Cyclodex Technologies, High Springs, Fla.) at 6 mM (2 mg/mL). For oral administration to animals, compounds were dissolved in 100% cremophore EL (Sigma-Aldrich Canada, Oakville, Ontario) at 150 mM (50 mg/mL) prior to dilution to 6 mM in phosphate buffer saline. However, while these compounds caged in cyclodextrin or formulated in cremophore EL micelles were very soluble in aqueous solution, they could not be used in the SHIP enzyme assays because of interference from both cyclodextrin and cremophore EL.
N-terminal His6 tagged SHIP enzyme was expressed in mammalian 293T cells by transient transfection with pME18S-His-SHIP plasmid and purified to >95% homogeneity by Ni-chelating bead chromatography (Qiagen, Mississauga, Ontario). Recombinant SHIP C2 domain (amino acid residues 725 to 863) was expressed in E. coli transformed with a pET28C expression vector constructed as described below. Recombinant protein purified from the cell lysates by Nichelating bead chromatography was >95% pure.
In vitro SHIP enzyme assay. SHIP enzyme assays were performed in 96-well microtitre plates with 10 ng of enzyme/well in a total volume of 25 μL of 20 mM Tris HCl, pH 7.5 and 10 Mm MgCl2. SHIP enzyme was incubated with test extracts (provided in DMSO) or vehicle for 15 min at 23° C. before the addition of 100 μM inositol-1,3,4,5-tetrakisphosphate (Echelon Biosciences Inc, Salt Lake City, Utah). After 20 min at 37° C. and the amount of inorganic phosphate released assessed by the addition of Malachite Green reagent and absorbance measurement at 650 nm. SHIP2 enzyme was purchased from Echelon Biosciences (Salt Lake City, Utah) and an equivalent amount of inositol phosphatase activity was used in the in vitro enzyme assay. Enzyme data are expressed as the mean of triplicates +/−SEM. Experiments were performed at least 3 times. (FIGS. 7A and 7B).

J774.1a macrophage cells [1] = test: Macrophage TNF-α NO assay (Assay 3); assay type: cell-based; conditions: 10 μg/ml test compound, LPS, 24 hr, Griess reagent; note: key: a ‘+’ indicates a positive result for desired activity; a ‘−’ indicates a negative result for desired activity
Method: Assay 3) Macrophage TNF-α NO assay. J774.1a macrophage cells were treated with 10 μg/ml of test compound dissolved in solvent for 40 minutes prior to the addition of LPS. Culture supernatants were collected after 24 hr. for determination of NO concentration using the Griess reagent.

J774.1a macrophage cells [2] = test: Macrophage TNF-α production (Assay 2); assay type: cell-based; conditions: 10 μg/mL test compound, 100 ng/mL LPS, ELISA; note: key: a ‘+’ indicates a positive result for desired activity; a ‘−’ indicates a negative result for desired activity
Method: Assay 2) Macrophage TNF-α production. J774.1a macrophage cells were treated with 10 μg/mL of test compound dissolved in solvent (e.g. cyclodextran) for 40 minutes prior to the addition of 100 ng/mL LPS. Culture supernatants were collected after 2 hr and 5 hr for TNF-α determination by ELISA.

MM cell lines = test: In vitro Multiple Myeloma (MM) assay (Assay 7); assay type: cell-based; note: key: a ‘+’ indicates a positive result for desired activity; a ‘−’ indicates a negative result for desired activity
Method: Assay 7) In vitro Multiple Myeloma (MM) assay. The ability of SHIP activators to reduce tumor cell survival was assessed in MM cell lines treated with the test compound. The lines OPM1, OPM2, MM.1S and RPMI 8226 were plated at a density of 1×10^5 cells/mL in 200 μL of medium with various concentrations of the test compound, and viable cell numbers were determined on day 3 and day 5 by trypan blue exclusion. The lines RPMI 8226 and U266 were plated at a density of 1×10^6 cells/mL in 250 μL of medium with various concentrations of the test compound. At day 4, the medium of each culture was replaced by fresh medium containing the same concentration of test compound. At day 7, the viable cell number of each culture was determined by trypan blue exclusion.
MM cell lines were cultured in 96 well plates seeded with 3×10^4 cells suspended in 200 μL of medium along with various concentrations of test compound (and associated cyclodextran vehicle control), with LY294002 serving as a positive control in the experiments. After 24-48 hrs of culture, […] of [3H]-thymidine (GE Healthcare, Baie D'Urfe, Canada) being added for the final 8 hours. Cells were harvested and DNA associated radioactivity was measured via liquid scintillation counting using a Wallac Microbeta counter (Perkin-Elmer; Boston, Mass.).
The ability of SHIP activators to reduce tumor cell survival was assessed in multiple myeloma (MM) cell lines treated with Compound 100 or AQX-016A. The lines OPM1, OPM2, MM.1S and RPMI 8226 were plated at a density of 1×10^5 cells/mL in 200 μL of medium with various concentrations of Compound 100, and viable cell numbers were determined on day 3 and day 5 by trypan blue exclusion. The lines RPMI 8226 and U266 were plated at a density of 1×10^6 cells/mL in 250 μL of medium with various concentrations of AQX-016A. At day 4, the medium of each culture was replaced by fresh medium containing the same concentration of AQX-016A. At day 7, the viable cell number of each culture was determined by trypan blue exclusion. Experiments were performed in triplicate.
Proliferation (DNA synthesis) assays. Proliferation was measured by measuring incorporation of [^3H]-thymidine into cells. MM cell lines were cultured in 96 well plates seeded with 3×10^4 cells suspended in 200 μL, of medium along with various concentrations of Compound 100 or AQX-016A (and associated cyclodextran vehicle control), with LY294002 serving as a positive control in the indicated experiments. After 24-48 hrs of culture, 1 μCi of [^3H]-thymidine (GE Healthcare, Baie D'Urfe, Canada) being added for the final 8 hours. Plates were frozen, which also aided in cell lysis, to terminate the experiments. Cells were then harvested onto glass fibre filters using an automatic cell harvester (TomTech; Orange, Conn.) and DNA associated radioactivity was measured via liquid scintillation counting using a Wallac Microbeta counter (Perkin-Elmer; Boston, Mass.). Wells were set up in triplicate and data is expressed as mean+/−SEM.

Mast cells = test: Stimulation of mast cells by FcεRI crosslinking (Assay 4); assay type: cell-based; conditions: anti-DNP IgE, DNP-HSA
Method: Assay 4) Stimulation of mast cells by FcåRI crosslinking. Mast cells were pre-loaded overnight in BMMC medium lacking IL-3 with 0.1 μg/ml anti-DNP IgE (SPE-7, Sigma, Oakville, Ont). For calcium flux measurements, cells were incubated with 2 μM fura 2-acetoxymethyl ester (Molecular Probes, Eugene, Oreg.) in Tyrode's buffer at 23° C. for 45 min. Cells were then washed and incubated in the presence of the test compound 30 min prior to stimulation with the indicated concentration of DNP-human serum albumin (DNP-HSA). Calcium influx was monitored by spectrofluorometry as described previously. For analysis of intracellular signaling, cells were pre-loaded with anti-DNP IgE as above, pre-treated with the test compound for 30 min at 37° C. and stimulated with 20 ng/ml DNP-HSA for 5 min. Total cell lysates were then prepared and analyzed for phospho-PKB, phospho-p38^MAPK, phospho-MAPK, Grb-2 (Cell Signalling, Mississauga, Ont) and SHIP^6 by immunoblot analysis.

Structure (SMILES)	Assay Number 1: SHIP enzyme assay (SHIP enzyme)	Assay Number 3: Macrophage NO (J774.1a macrophage cells [1])	Assay Number 2: Macrophage TNF-α production (J774.1a macrophage cells [2])	Assay Number 7: In vitro Multiple Myeloma (MM) assay (MM cell lines)	Assay Number 4: Stimulation of mast cells by FcεRI crosslinking (Mast cells)
Cc1cc(O)c(O)c2c1[C@@]1(C)CCC3C(C)(C)CCC[C@]3(C)[C@H]1C2 (stereo partly drawn) [8 Epi 16A]	+				
COC(=O)c1cc(O)c(O)c2c1[C@@]1(C)CCC3C(C)(C)CCC[C@]3(C)[C@H]1C2 (some centres unmarked) [Compound 8-Epipelorol, 8-Epipelorol]	+				
COC(=O)c1cc(O)c(O)c2c1[C@]1(C)CCC3C(C)(C)CCC[C@]3(C)[C@@H]1C2 (some centres unmarked) [Compound 9-Epipelorol, 9-Epipelorol]	+				
CCc1cc(O)c(O)c2c1[C@]1(C)CCC3C(C)(C)CCC[C@]3(C)[C@H]1C2 (some centres unmarked) [Compound 18A, reference compound]	+	+	+		
Cc1cc2c(cc1O)C[C@@H]1[C@@]3(C)CCCC(C)(C)[C@@H]3CC[C@@]21C [Compound 101]		+	+	+	
CC(=O)Oc1cc(C)c2c(c1)C[C@H]1[C@@]2(C)CCC2C(C)(C)CCC[C@@]21C (some centres unmarked) [Compound 102]		+	+		
Cc1cc(OC(=O)C(N)CCCNC(=N)N)cc2c1[C@]1(C)CCC3C(C)(C)CCC[C@]3(C)[C@H]1C2 (some centres unmarked) [Compound 105]		+	+		
Cc1cc(OP(=O)(O)O)cc2c1[C@]1(C)CCC3C(C)(C)CCC[C@]3(C)[C@H]1C2 (some centres unmarked) [Compound 109]		+	−	+	
Cc1cc(OC(=O)C(CC(=O)O)NC(=O)CCC(=O)O)cc2c1[C@]1(C)CCC3C(C)(C)CCC[C@]3(C)[C@H]1C2 (some centres unmarked) [Compound 114]		+	+		
CC1(C)CCC[C@]2(C)[C@H]3Cc4cc(O)cc(O)c4[C@]3(C)CC[C@@H]12 [Compound 115]				+	
COc1cc(O)cc2c1[C@]1(C)CC[C@H]3C(C)(C)CCC[C@]3(C)[C@H]1C2 [Compound 117]		+	+	+	
COc1ccc2c(c1O)C[C@@H]1[C@@]3(C)CCCC(C)(C)[C@@H]3CC[C@@]21C [Compound 118]		+	−	+	
CC1(C)CCC[C@]2(C)[C@H]3Cc4cc(O)ccc4[C@]3(C)CC[C@@H]12 [Compound 121]		+	+	+	
Cc1cc(O)c2c(c1)C[C@@H]1[C@@]3(C)CCCC(C)(C)[C@@H]3CC[C@@]21C [Compound 122]		+	−	+	
Cc1cc(OC(=O)C(N)Cc2cnc[nH]2)cc2c1[C@]1(C)CCC3C(C)(C)CCC[C@]3(C)[C@H]1C2 (some centres unmarked) [Compound 123]		+	+		
Cc1cc(O)cc2c1[C@]1(C)CCC3C(C)(C)CCC[C@]3(C)[C@@H]1C2 (some centres unmarked) [Compound 124]		+	+	+	+
Cc1cc(O)cc2c1[C@@]1(C)CCC3C(C)(C)CCC[C@]3(C)[C@H]1C2 (some centres unmarked) [Compound 125]		+	+	+	+
COc1cc(C)c2c(c1O)C[C@@H]1[C@@]3(C)CCCC(C)(C)[C@@H]3CC[C@@]21C [Compound 129]		+	−		
CC1(C)CCC[C@@]2(C)C1CC[C@@]1(C)c3c(C(=O)O)cc(O)c(O)c3C[C@@H]12 (some centres unmarked) [Desmethylpelorol, reference compound]	+	+	+		
COC(=O)c1cc(O)c(O)c2c1[C@]1(C)CCC3C(C)(C)CCC[C@]3(C)[C@H]1C2 (some centres unmarked) [Pelorol, pelorol]	+				
